Data: ChEMBL document CHEMBL4118278, “Design, synthesis and biological evaluation of deuterated Vismodegib for improving pharmacokinetic properties” (Bioorg Med Chem Lett, 2018)

Legend:
Format in all cases: ADME, organism-based
Conditions in all cases: in vivo
[1] = Cmax in CD-1 mouse at 5 mg/kg, po administered as single dose by LC-MS/MS analysis; set-up: dose 5 mg/kg, route oral
[2] = Half life in CD-1 mouse at 5 mg/kg, po administered as single dose by LC-MS/MS analysis
[3] = AUC (0 to infinity) in CD-1 mouse at 5 mg/kg, po administered as single dose by LC-MS/MS analysis; set-up: dose 5 mg/kg, route oral, time infinity
[4] = AUC (0 to t) in CD-1 mouse at 5 mg/kg, po administered as single dose by LC-MS/MS analysis
[5] = Tmax in CD-1 mouse at 5 mg/kg, po administered as single dose by LC-MS/MS analysis

Cmax [1] [ng/mL]	half-life [2] [h]	AUC(0-inf) [3] [ng·h/mL]	AUC(0-t) [4] [ng·h/mL]	Tmax [5] [h]	SMILES
1610	2.82	8290	6280	1	[2H]c1cc(Cl)c(-c2ccccn2)c([2H])c1NC(=O)c1ccc(S(C)(=O)=O)cc1Cl
854	5.62	7660	4050	1	CS(=O)(=O)c1ccc(C(=O)Nc2ccc(Cl)c(-c3ccccn3)c2)c(Cl)c1 [VISMODEGIB]
1870	8.55	17100	6510	1	[2H]c1nc(-c2cc(NC(=O)c3ccc(S(C)(=O)=O)cc3Cl)ccc2Cl)c([2H])c([2H])c1[2H]
972	2.56	6110	6110	1	[2H]c1cc(Cl)c(-c2nc([2H])c([2H])c([2H])c2[2H])c([2H])c1NC(=O)c1ccc(S(C)(=O)=O)cc1Cl
